Measurements: ChEMBL document CHEMBL4020815 (J Med Chem, 2017)

Columns and labels:
[1] = biological target: T1, C-1-tetrahydrofolate synthase, cytoplasmic (Homo sapiens, UniProt P11586); experiment: Inhibition of MTHFD1 (unknown origin) using NADP/5,10-methylene THF as substrate after 30 mins by HPLC method
T1 sequence (P11586 whole entry): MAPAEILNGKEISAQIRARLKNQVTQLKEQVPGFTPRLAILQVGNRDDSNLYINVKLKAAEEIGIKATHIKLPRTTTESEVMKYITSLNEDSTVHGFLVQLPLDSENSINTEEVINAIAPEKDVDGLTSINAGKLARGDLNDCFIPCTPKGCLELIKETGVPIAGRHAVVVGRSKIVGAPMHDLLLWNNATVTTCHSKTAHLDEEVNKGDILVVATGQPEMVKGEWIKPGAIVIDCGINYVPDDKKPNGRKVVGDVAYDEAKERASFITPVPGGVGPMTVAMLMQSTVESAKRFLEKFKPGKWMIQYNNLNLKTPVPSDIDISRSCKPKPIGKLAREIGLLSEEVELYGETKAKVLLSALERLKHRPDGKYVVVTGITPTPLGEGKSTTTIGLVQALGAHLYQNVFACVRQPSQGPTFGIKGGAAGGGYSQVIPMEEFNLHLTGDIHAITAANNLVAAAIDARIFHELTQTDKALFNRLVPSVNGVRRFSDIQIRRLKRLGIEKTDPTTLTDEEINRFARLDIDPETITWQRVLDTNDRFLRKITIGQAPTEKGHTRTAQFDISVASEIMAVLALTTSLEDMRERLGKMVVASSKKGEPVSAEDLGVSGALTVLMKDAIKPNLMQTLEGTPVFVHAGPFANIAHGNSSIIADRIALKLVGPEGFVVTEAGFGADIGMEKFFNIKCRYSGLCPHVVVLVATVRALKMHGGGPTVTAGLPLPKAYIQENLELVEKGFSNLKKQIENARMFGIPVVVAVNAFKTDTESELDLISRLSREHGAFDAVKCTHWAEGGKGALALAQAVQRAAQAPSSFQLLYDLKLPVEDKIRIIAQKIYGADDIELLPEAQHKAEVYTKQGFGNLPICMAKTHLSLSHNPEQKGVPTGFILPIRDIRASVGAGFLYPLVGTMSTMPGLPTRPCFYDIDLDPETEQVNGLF

[2] = Antitumor activity against human MDA-MB-231met2 cells xenografted in athymic nude mouse assessed as tumor volume at 30 mg/kg, bid administered via oral gavage for 22 days relative to control; type: functional
[3] = system: Mus musculus; experiment: Unbound Cmax in CD-1 mouse at 10 mg/kg, po by LC-MS/MS method; type: ADME, organism-based; settings: in vivo
[4] = biological target: CYP2C9 (Homo sapiens, UniProt P11712); experiment: Inhibition of human CYP2C9 at 10 uM relative to control; type: ADME
[5] = biological target: T2, Serine hydroxymethyltransferase, cytosolic (Homo sapiens, UniProt P34896); experiment: Inhibition of SHMT1 (unknown origin) using serine/THF as substrate after 50 mins by HPLC method
T2 sequence (P34896 whole entry): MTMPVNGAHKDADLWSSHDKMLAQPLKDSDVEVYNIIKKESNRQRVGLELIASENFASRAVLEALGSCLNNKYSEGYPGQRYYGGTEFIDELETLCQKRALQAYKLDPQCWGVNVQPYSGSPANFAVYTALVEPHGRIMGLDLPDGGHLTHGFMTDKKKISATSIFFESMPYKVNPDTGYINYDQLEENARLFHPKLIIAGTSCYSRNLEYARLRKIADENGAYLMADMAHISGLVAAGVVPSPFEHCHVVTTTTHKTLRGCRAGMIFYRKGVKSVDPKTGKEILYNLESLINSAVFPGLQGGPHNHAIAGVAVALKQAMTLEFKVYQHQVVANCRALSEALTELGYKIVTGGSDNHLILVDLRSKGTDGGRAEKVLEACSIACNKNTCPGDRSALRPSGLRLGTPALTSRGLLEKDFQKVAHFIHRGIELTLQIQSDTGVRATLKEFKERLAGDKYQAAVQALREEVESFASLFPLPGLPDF

[6] = system: Mus musculus; experiment: Unbound volume of distribution at steady state in CD-1 mouse at 1 mg/kg, iv by LC-MS/MS method; type: ADME, organism-based; settings: in vivo
[7] = system: NCI-H460; experiment: Cytotoxicity against human NCI-H460 cells assessed as growth inhibition using low folate media after 7 days by Alamar blue assay; type: functional; settings: NCI-H460, 168 h
[8] = system: Mus musculus; experiment: Unbound AUC in CD-1 mouse at 10 mg/kg, po by LC-MS/MS method; type: ADME, organism-based; settings: in vivo
[9] = system: Mus musculus; experiment: In vivo inhibition of AICARFT in tumor of low folate diet fed nude mouse xenografted with human NCI-H460 cells assessed as increase in intratumoral ZMP levels at 0.3 to 30 mg/kg after 4 hrs relative to vehicle-treated control; type: functional

Chain of CYP2C9 (P11712 whole entry): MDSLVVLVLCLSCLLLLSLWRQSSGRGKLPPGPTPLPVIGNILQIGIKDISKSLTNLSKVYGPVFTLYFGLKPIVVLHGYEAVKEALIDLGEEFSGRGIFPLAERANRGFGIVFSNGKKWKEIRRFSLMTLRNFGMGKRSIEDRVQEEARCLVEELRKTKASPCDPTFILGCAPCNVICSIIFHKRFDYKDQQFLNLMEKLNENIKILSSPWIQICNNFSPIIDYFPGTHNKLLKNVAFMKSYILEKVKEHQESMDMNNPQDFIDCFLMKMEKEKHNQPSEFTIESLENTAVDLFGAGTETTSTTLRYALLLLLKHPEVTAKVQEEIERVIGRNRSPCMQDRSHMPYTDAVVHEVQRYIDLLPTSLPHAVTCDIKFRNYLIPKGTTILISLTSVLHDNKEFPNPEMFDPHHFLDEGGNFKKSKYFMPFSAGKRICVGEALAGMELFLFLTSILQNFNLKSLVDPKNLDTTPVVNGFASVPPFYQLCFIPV

## O=c1[nH]ccc2cc(F)c(NS(=O)(=O)c3ccc(N4CC[C@@H](O)C4)s3)cc12
[1]
  IC50: > 100 µM
[2]
  Activity: 16%
[3]
  fCmax: 289 nM
[4]
  inhibition at 10 µM: < 10%
[5]
  IC50: > 100 µM
[6]
  Vduss: 12 L/kg
[7]
  GI50: 0.025 µM
[8]
  fAUC: 1.279 µM·h
[9]
  fold change (FC): >100
